Where two headings read alike, the source gives them in different places.
Key:
IGF1R = IGF1R (Homo sapiens, UniProt P08069); assay: IGF1R kinase test (mobility variation analysis, Caliper EZ Reader); type: biochemical; conditions: kinase enzymatic activity, Table 1; read-out: EGFR IGF1R IC50
Procedure, shortened: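 Kinase preincubated 10 min at room temperature with compound (10-point 3-fold series, top 3000 nM), then ATP and substrate added and reacted at room temperature. Substrate conversion read by mobility-shift (Caliper EZ Reader); % inhibition vs no-enzyme and no-compound controls fitted to variable-slope curve for IC50.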

[1] = target: Ba/F3 cells with EGFR Δ19del/T790M/C797S mutation gene stably overexpressed (Homo sapiens, UniProt P00533, T790M/C797S, cells depend on it, form not given); assay: Ba/F3-Δ19del/T790M/C797S cell proliferation assay (CellTiter Glo, 72 hours); type: cell-based
Sequence of Ba/F3 cells with EGFR Δ19del/T790M/C797S mutation gene stably overexpressed (P00533 with tags, fused parts or gaps DEL746-750/T790M/C797S, form open): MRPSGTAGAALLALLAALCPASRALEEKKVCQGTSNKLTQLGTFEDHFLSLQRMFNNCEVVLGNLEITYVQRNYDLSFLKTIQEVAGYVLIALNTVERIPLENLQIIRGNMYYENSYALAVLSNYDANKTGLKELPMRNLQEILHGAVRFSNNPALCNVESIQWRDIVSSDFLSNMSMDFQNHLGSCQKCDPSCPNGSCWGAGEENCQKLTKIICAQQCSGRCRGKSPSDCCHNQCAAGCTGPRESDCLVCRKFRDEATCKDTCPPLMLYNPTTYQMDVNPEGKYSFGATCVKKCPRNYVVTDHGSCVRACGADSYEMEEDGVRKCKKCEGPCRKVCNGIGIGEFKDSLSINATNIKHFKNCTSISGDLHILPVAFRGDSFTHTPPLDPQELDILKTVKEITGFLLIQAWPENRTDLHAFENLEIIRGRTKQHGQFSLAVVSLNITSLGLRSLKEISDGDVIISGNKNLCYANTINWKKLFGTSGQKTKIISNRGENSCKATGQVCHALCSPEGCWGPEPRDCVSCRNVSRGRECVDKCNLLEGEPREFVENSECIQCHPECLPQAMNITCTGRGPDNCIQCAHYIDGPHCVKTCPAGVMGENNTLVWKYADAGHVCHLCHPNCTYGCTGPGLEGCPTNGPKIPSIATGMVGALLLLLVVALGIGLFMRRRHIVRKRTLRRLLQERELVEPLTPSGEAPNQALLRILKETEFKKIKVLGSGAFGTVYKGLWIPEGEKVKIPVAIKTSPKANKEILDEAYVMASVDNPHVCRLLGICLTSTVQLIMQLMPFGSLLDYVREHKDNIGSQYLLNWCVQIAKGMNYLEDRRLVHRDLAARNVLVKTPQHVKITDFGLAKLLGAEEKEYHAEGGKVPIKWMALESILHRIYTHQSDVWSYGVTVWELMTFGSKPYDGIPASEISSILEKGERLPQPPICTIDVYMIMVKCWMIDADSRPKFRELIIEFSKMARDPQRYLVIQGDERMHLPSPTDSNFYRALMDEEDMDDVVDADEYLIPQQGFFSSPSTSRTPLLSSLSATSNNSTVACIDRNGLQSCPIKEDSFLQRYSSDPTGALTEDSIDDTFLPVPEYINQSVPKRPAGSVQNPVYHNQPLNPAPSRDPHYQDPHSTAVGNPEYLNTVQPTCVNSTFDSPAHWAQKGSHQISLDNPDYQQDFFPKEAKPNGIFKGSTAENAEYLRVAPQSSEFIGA
Procedure, shortened: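 Ba/F3 cells stably overexpressing wild-type EGFR or EGFR Δ19del/T790M/C797S were seeded at 2000 cells/well and incubated 72 h with compound. Viability was read by CellTiter-Glo luminescence, and IC50 came from a four-parameter logistic fit of signal against log concentration.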

[2] = target: Ba/F3-EGFR wild-type cell line (Homo sapiens, UniProt P00533); assay: Ba/F3-EGFR wild-type cell proliferation assay (CellTiter Glo, 72 hours); type: cell-based; conditions: Table 2, read-out: EGFR WT IC50
Procedure: Cell line: Ba/F3 cells with EGFR Δ19del/T790M/C797S mutation gene stably overexpressed named Ba/F3-Δ119del/T90M/C797S, and A431 and Ba/F3-EGFR wild-type cell line.
a) Centrifuge the growth cells in logarithmic phase at 1000 rpm for 5 minutes, resuspend the cells in culture medium, and then count the cells;
b) Inoculate the cells into a 96-well cell culture plate with a density of 2000 cells/well;
b) Incubate cells in an incubator for another 72 hours.
a) Take out the 96-well cell culture plate and add 50 μl CTG reagent (CellTiter Glo kit, promega, Cat #G7573);
b) Shake the plate for 2 minutes and let cool at room temperature for 10 minutes;
c) Read luminous signal value with PerkinElmer reader,
Analysis of Experimental Data
The data were analyzed by GraphPad Prism 6.0 software to obtain the fitting curve of compound activity.
Y=Min+(Max−Min)/(1+10^((Log IC50−X)*slope));
X: Logarithm of compound concentration; Y: luminous signal.

A431 = A431 cell proliferation assay (CellTiter Glo, 72 hours); type: cell-based; conditions: Homo sapiens, A-431, 72 h
Procedure, shortened: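 A431 cells (2000/well) exposed 72 h to compound at 1000 nM down to 0.2 nM in 3-fold steps, 0.1% DMSO (0.5% for some series). Viability by CellTiter-Glo luminescence; IC50 by four-parameter nonlinear regression.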

EGFRΔ19del/T790M/C797S = EGFRΔ19del/T790M/C797S (Homo sapiens, UniProt P00533, T790M/C797S, form not given); assay: EGFR Δ19del/T790M/C797S kinase test (mobility variation analysis, Caliper EZ Reader); type: biochemical; conditions: kinase enzymatic activity, Table 1
Sequence of EGFRΔ19del/T790M/C797S (P00533 with tags, fused parts or gaps DEL746-750/T790M/C797S, form open): as above
Procedure, shortened: (§1)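 Kinase pre-incubated with compound 10 minutes at room temperature, then ATP plus peptide substrate added; substrate conversion read by mobility shift after stop solution. Percent inhibition normalized to no-compound and no-enzyme controls; IC50 from variable-slope log(inhibitor) fit.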

EGFR WT = EGFR WT (Homo sapiens, UniProt P00533); assay: EGFR WT kinase test (mobility variation analysis, Caliper EZ Reader); type: biochemical; conditions: kinase enzymatic activity, Table 1
Sequence of EGFR WT (P00533 25-1210): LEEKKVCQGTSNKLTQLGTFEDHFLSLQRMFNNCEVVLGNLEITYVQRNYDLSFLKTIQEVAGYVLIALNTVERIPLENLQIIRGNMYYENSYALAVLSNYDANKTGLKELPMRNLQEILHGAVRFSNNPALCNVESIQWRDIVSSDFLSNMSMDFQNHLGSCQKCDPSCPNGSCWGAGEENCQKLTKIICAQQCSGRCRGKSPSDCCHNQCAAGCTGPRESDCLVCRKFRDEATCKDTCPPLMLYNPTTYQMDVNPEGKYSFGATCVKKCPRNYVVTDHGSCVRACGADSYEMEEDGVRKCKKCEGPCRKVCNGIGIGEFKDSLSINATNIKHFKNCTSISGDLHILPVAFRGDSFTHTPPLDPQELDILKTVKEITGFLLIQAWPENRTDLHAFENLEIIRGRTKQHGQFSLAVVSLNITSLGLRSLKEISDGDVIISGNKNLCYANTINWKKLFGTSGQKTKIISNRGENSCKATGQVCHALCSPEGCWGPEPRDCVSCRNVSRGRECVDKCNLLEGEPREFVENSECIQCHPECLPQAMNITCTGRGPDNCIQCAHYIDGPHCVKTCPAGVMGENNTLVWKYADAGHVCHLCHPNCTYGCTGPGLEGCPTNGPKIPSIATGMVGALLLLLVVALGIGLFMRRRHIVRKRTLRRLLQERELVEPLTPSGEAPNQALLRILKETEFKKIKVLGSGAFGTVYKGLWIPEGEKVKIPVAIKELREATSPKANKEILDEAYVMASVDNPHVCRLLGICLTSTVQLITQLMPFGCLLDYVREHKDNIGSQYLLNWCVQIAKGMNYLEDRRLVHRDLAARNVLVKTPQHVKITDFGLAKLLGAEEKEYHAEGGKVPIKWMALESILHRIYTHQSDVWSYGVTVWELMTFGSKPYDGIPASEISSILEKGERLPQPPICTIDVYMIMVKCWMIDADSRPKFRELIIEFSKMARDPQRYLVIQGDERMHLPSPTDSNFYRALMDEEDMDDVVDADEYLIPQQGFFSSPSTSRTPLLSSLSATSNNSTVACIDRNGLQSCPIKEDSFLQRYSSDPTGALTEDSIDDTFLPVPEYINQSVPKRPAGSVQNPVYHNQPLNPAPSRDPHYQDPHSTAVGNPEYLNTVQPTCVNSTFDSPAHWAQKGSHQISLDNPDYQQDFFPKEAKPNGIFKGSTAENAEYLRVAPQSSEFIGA
Procedure, shortened: as §1

[3] = Table 2, read-out: EGFR Δ19del/T790M/C797S IC50
[4] = cell proliferation, A431, 72 hours, Table 2, read-out: A431 IC50

Sequence of IGF1R (P08069 31-1367, species assumed): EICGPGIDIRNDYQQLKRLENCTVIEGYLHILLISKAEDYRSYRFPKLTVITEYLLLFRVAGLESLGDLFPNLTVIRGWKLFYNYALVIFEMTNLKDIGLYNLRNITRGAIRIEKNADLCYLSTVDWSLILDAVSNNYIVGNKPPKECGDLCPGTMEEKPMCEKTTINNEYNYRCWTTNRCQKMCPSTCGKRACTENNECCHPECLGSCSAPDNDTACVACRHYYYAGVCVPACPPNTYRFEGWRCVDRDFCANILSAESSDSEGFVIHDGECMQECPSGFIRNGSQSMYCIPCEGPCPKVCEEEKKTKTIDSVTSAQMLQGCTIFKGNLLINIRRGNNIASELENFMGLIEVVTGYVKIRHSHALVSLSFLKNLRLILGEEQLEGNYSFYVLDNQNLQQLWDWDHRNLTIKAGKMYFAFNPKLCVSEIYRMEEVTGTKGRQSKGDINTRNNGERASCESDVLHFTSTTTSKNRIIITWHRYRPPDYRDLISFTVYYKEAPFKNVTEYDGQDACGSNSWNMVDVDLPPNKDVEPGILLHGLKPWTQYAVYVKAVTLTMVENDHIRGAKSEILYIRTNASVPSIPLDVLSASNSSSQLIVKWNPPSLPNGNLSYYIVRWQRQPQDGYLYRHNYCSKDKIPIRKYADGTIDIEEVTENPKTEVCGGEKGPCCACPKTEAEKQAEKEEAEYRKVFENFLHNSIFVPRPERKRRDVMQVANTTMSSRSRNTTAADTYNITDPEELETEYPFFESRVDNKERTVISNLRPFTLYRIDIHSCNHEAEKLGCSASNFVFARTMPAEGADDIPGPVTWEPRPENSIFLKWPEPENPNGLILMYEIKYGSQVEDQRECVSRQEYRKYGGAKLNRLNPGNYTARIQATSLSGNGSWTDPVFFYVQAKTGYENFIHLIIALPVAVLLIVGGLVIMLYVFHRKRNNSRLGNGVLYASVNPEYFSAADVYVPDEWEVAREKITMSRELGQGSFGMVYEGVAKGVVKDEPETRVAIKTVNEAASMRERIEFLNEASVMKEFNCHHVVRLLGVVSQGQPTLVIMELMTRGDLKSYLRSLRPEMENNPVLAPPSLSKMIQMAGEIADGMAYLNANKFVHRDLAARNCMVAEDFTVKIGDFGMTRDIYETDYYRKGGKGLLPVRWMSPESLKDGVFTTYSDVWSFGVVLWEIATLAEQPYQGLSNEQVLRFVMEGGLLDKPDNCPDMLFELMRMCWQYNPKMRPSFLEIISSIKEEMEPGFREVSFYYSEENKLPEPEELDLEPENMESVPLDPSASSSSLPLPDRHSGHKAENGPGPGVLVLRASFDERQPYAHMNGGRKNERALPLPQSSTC

## COc1cc(N2CCC(N3CCN(C)CC3)CC2)ccc1Nc1ncc(Cl)c(Nc2ccccc2P(C)(C)=O)n1 [Brigatinib, reference compound]
IGF1R
  IC50: 23.4 nM
[1]; read-out: EGFR Δ19del/T790M/C797S IC50, Table 2
  GI50: 64.9 nM
[2]
  GI50: 22.5 nM
A431; read-out: A431 IC50(nM)
  IC50: 309 nM

## CCc1cc(Nc2ncc(Br)c(Nc3ccc(-c4ccccc4)cc3P(C)(C)=O)n2)c(OC)cc1N1CCC(N2CCN(C)CC2)CC1 [Compound 1]
EGFRΔ19del/T790M/C797S
  IC50: 0.5 nM
EGFR WT
  IC50: 10.3 nM
IGF1R
  IC50: 91.5 nM
[1]; [3]
  GI50: 2.2 nM
[2]
  GI50: 171 nM
A431; [4]
  IC50: 935 nM

## CCc1cc(Nc2ncc(Br)c(Nc3ccc(-c4cnn(C)c4)cc3P(C)(C)=O)n2)c(OC)cc1N1CCC(N2CCN(C)CC2)CC1 [Compound 3, (2-((5-Bromo-2-((5-ethyl-2-methoxy-4-(4-(4-methylpiperazin-1-yl)piperidin-1-yl)phenyl)amino)pyrimidin-4-yl)amino)-5-(1-methyl-1hydro-pyrazol-4-yl)phenyl)dimethylphosphine oxide]
EGFRΔ19del/T790M/C797S
  IC50: 0.3 nM
IGF1R
  IC50: 53.7 nM
[1]; [3]
  GI50: 4.5 nM
[2]
  GI50: 107 nM
A431; [4]
  IC50: 602 nM

## CCc1cc(Nc2ncc(Br)c(Nc3ccc(-c4cnn(CC)c4)cc3P(C)(C)=O)n2)c(OC)cc1N1CCC(N2CCN(C)CC2)CC1 [Compound 4, (2-((5-Bromo-2-((5-ethyl-2-methoxy-4-(4-(4-methylpiperazin-1-yl)piperidin-1-yl)phenyl)amino)pyrimidin-4-yl)amino)-5-(1-ethyl-1hydro-pyrazol-4-yl)phenyl)dimethylphosphine oxide]
EGFRΔ19del/T790M/C797S
  IC50: 0.6 nM
IGF1R
  IC50: 71.9 nM
[1]; [3]
  GI50: 1.9 nM
[2]
  GI50: 84.3 nM
A431; [4]
  IC50: 465 nM

## CCc1cc(Nc2ncc(Br)c(Nc3ccc(-c4cnn(C)n4)cc3P(C)(C)=O)n2)c(OC)cc1N1CCC(N2CCN(C)CC2)CC1 [Compound 8, (2-((5-Bromo-2-((5-ethyl-2-methoxy-4-(4(4-methylpiperazin-1-yl)piperidin-1-yl)phenyl)amino)pyrimidin-4-yl)amino)-5-(2-methyl-2H-1,2,3-triazol-4-yl)phenyl)dimethylphosphine oxide]
EGFRΔ19del/T790M/C797S
  IC50: 0.4 nM
EGFR WT
  IC50: 10.8 nM
IGF1R
  IC50: 67.9 nM
[1]; [3]
  GI50: 3.3 nM
[2]
  GI50: 181 nM
A431; [4]
  IC50: 773 nM

## CCc1cc(Nc2ncc(Br)c(Nc3ccc(-c4ccco4)cc3P(C)(C)=O)n2)c(OC)cc1N1CCC(N2CCN(C)CC2)CC1 [Compound 16, (2-((5-Bromo-2-((5-ethyl-2-methoxy-4-(4-(4-methylpiperazin-1-yl)piperidin-1-yl)phenyl)amino)pyrimidin-4-yl)amino)-5-(furan-2-yl)phenyl)dimethylphosphine oxide]
EGFRΔ19del/T790M/C797S
  IC50: 0.4 nM
[1]; [3]
  GI50: 5.4 nM
[2]
  GI50: 141 nM
A431; [4]
  IC50: 564 nM

## CCc1cc(Nc2ncc(Cl)c(Nc3ccc(-c4ncc(OC)cn4)cc3P(C)(C)=O)n2)c(OC)cc1N1CCC(N2CCN(C)CC2)CC1 [Compound 20, (2-((5-Chloro-2-((5-ethyl-2-methoxy-4-(4-(4-methylpiperazin-1-yl)piperidin-1-yl)phenyl)amino)pyrimidin-4-yl)amino)-5-(5-methoxypyrimidin-2-yl)phenyl)dimethylphosphine oxide]
EGFRΔ19del/T790M/C797S
  IC50: 0.5 nM
EGFR WT
  IC50: 19 nM
IGF1R
  IC50: 120 nM
[1]; [3]
  GI50: 11.8 nM
[2]
  GI50: 365 nM
A431; [4]
  IC50: 1470 nM

## CCc1cc(Nc2ncc(Br)c(Nc3ccc(-c4ncccn4)cc3P(C)(C)=O)n2)c(OC)cc1N1CCC(N2CCN(C)CC2)CC1 [Compound 26, (2-((5-Bromo-2-((5-ethyl-2-methoxy-4-(4-(4-methylpiperazin-1-yl)piperidin-1-yl)phenyl)amino)pyrimidin-4-yl)amino)-5-(pyrimidin-2-yl)phenyl)dimethylphosphine oxide]
EGFRΔ19del/T790M/C797S
  IC50: 0.4 nM
EGFR WT
  IC50: 18.9 nM
IGF1R
  IC50: 102 nM
[1]; [3]
  GI50: 5.1 nM
[2]
  GI50: 162 nM
A431; [4]
  IC50: 1030 nM

## CCc1cc(Nc2ncc(Br)c(Nc3ccc(-c4ncco4)cc3P(C)(C)=O)n2)c(OC)cc1N1CCC(N2CCN(C)CC2)CC1 [Compound 27]
EGFRΔ19del/T790M/C797S
  IC50: 0.3 nM
EGFR WT
  IC50: 15.6 nM
IGF1R
  IC50: 72 nM
[1]; [3]
  GI50: 7.5 nM
[2]
  GI50: 159 nM
A431; [4]
  IC50: 871 nM

## CCc1cc(Nc2ncc(Br)c(Nc3ccc(-c4cscn4)cc3P(C)(C)=O)n2)c(OC)cc1N1CCC(N2CCN(C)CC2)CC1 [Compound 28, (2-((5-Bromo-2-((5-ethyl-2-methoxy-4-(4-(4-methylpiperazin-1-yl)piperidin-1-yl)phenyl)amino)pyrimidin-4-yl)amino)-5-(thiazol-4-yl)phenyl)dimethylphosphine oxide]
EGFRΔ19del/T790M/C797S
  IC50: 0.2 nM
EGFR WT
  IC50: 12 nM
IGF1R
  IC50: 61 nM
[1]; [3]
  GI50: 9.9 nM
[2]
  GI50: 171 nM
A431; [4]
  IC50: 778 nM

## CCc1cc(Nc2ncc(Br)c(Nc3ccc(-c4ncc(F)cn4)cc3P(C)(C)=O)n2)c(OC)cc1N1CCC(N2CCN(C)CC2)CC1 [Compound 29, (2-((5-Bromo-2-((5-ethyl-2-methoxy-4-(4-(4-methylpiperazin-1-yl)piperidin-1-yl)phenyl)amino)pyrimidin-4-yl)amino)-5-(5-fluoropyrimidin-2-yl)phenyl)dimethylphosphine oxide]
EGFRΔ19del/T790M/C797S
  IC50: 0.2 nM
EGFR WT
  IC50: 16 nM
IGF1R
  IC50: 80 nM
[1]; [3]
  GI50: 13.4 nM
[2]
  GI50: 194 nM
A431; [4]
  IC50: 2660 nM

## CCc1cc(Nc2ncc(Br)c(Nc3ccc(-c4ncn(C)n4)cc3P(C)(C)=O)n2)c(OC)cc1N1CCC(N2CCN(C)CC2)CC1 [Compound 31, (2-((5-Bromo-2-((5-ethyl-2-methoxy-4-(4-(4-methylpiperazin-1-yl)piperidin-1-yl)phenyl)amino)pyrimidin-4-yl)amino)-5-(1-methyl-1H-1,2,4-triazol-3-yl)phenyl)dimethylphosphine oxide]
EGFRΔ19del/T790M/C797S
  IC50: 0.3 nM
EGFR WT
  IC50: 27.6 nM
IGF1R
  IC50: 179 nM
[1]; [3]
  GI50: 20.8 nM
[2]
  GI50: 559 nM
A431; [4]
  IC50: 1030 nM

## COc1cnn(-c2ccc(Nc3nc(Nc4cc(-c5cnn(C)c5)c(N5CCN(C6CCCC6)CC5)cc4OC)ncc3Br)c(P(C)(C)=O)c2)c1 [Compound K-081]
[1]; [3]
  GI50: 1 nM
[2]
  GI50: 52.1 nM
A431; [4]
  IC50: 379 nM

## COc1cnn(-c2ccc(Nc3nc(Nc4cc(-c5cnn(C)c5)c(N5CCN(C(C)=O)CC5)cc4OC)ncc3Br)c(P(C)(C)=O)c2)c1 [Compound K-082]
[1]; [3]
  GI50: 11.4 nM
[2]
  GI50: 2960 nM
A431; [4]
  IC50: 1260 nM

## COc1cn(-c2ccc(Nc3nc(Nc4cc(-c5cnn(C)c5)c(N5CCN(c6cccnc6)CC5)cc4OC)ncc3Br)c(P(C)(C)=O)c2)cn1 [Compound K-083, (2-((5-Bromo-2-((2-methoxy-5-(1-methyl-1H-pyrazol-4-yl)-4-(4-(pyridin-3-yl)Piperazin-1-yl)phenyl)amino)pyrimidin-4-yl)amino)-5-(4-methoxy-1H-imidazol-1-yl)phenyl)dimethylphosphine oxide]
[1]; [3]
  GI50: 1 nM
[2]
  GI50: 113 nM
A431; [4]
  IC50: 910 nM

## COc1cc(N2CCC(N3CCN(C)CC3)CC2)ccc1Nc1ncc(Cl)c(Nc2ccc(C)cc2P(C)(C)=O)n1 [compound 1, reference compound]
EGFR WT
  IC50: 60 nM
IGF1R
  IC50: 44.1 nM
[1]; [3]
  GI50: 49.9 nM
[2]
  GI50: 836 nM
A431; [4]
  IC50: 598 nM
